{
  "source": "patent US20210275480A1",
  "about": "“COMPOSITIONS AND METHODS FOR THE REDUCTION OR TREATMENT OF FIBROSIS” (AXCELLA HEALTH INC., priority 2018, published 2021)",
  "key": {"[1]": {"system": "procollagen Iα1 secretion, primary human hepatic stellate cells", "experiment": "Procollagen Iα1 secretion by TGFβ1-stimulated primary human hepatic stellate cells, ELISA", "format": "cell-based", "settings": "for procollagen Iα1 secretion: primary human hepatic stellate cells, three healthy donors, TGFβ1 3 ng/mL 24 h, summary in words", "protocol": "Primary human hepatic stellate cells were obtained from Samsara Sciences. Cells were grown in Complete HSC Medium to ˜80% confluence in T75 or T150 flasks below passage 10 were seeded into sterile, collagen I coated, 96-well optical plastic microplates (ThermoScientific, 152036) and incubated overnight at 37° C., 5% CO2 in a humidified incubator in DMEM with 2% Fetal Bovine Serum and 1% Antibiotic-Antimycotic. After the overnight incubation, plates are washed and pretreated with medium±single amino acid dropout, 1×HMDB DMEM±supplemental amino acid dose for 10.5 hours. After 10.5 hour pretreatment, the same pretreatment medium supplemented with 3 ng/mL TGFβ1, was applied and incubated for 24 hours at 37° C., 5% CO2. After 24 hour stimulus, supernatant was removed, RNA was extracted and gene expression was evaluated using the ΔΔCq method within each single amino acid dropout and supplementation by normalizing to its own 1×HMDB concentration.\nHuman Procollagen 1α1 was measured from the supernatant by ELISA (Human ProCollagen I alpha 1 DuoSet ELISA, R&D Systems) at 1/100 dilution in 1× Reagent Diluent (Reagent Ancillary Kit 2, R&D Systems).\nTables 32, 33, 33-1, 33-2, 33-3, and 33-4 show the fold change in procollagen Iα1 in primary human hepatic stellate cells from three different healthy donors normalized to their respective baseline amino acid conditions. Statistical significance calculated by one-way"}, "FATZO mice (NASH)": {"system": "FATZO mice (NASH)", "experiment": "FATZO mouse western diet + fructose NASH model (Example 6): body and liver weight, liver histology, NAS, fibrosis, Sirius Red", "format": "in vivo", "settings": "WDF-fed FATZO mice", "source_text": "In one example, the effects of […] and related amino acid compositions in the obesity, metabolism-driven non-alcoholic steatohepatitis (NASH) in FATZO mouse model was examined.\nNASH was induced in 60 male FATZO mice by a western diet (Research Diet #D12079B; fat 40% kcal, protein 17% kcal, carbohydrate 43% kcal) supplemented with 5% fructose in the drinking water (WDF) during a 16 week induction phase. Diets and water were available ad libitum. Littermate control male FATZO mice fed with a control diet (n=6, Purina #5008; fat 17% kcal, protein 27% kcal, carbohydrate 56% kcal) and sterile water were set up for control purpose. Mice were housed in plastic cages with microisolator. Sterilized bedding was replaced once a week. Mice were housed three per cage and maintained on a twelve hour light cycle throughout study duration. Room temperature was monitored daily and maintained at 22-25° C. Body weight was recorded every week during the induction phase.\nFollowing 16 weeks diet induction, 6 mice remained on control diet (group 1, Control) while 60 induced mice were randomized on body weight and plasma glucose (fed) for assignment to the following treatments. FATZO mice were administered with test articles starting at 16 weeks post western diet NASH induction for 4 weeks. Test articles were administered by oral gavage. Animals were euthanized at 20 weeks post western diet NASH induction, and tissues were harvested for analysis.\n[…], […]+G, LRQNAC, and OCA (Advanced ChemBlocks, Inc.), incipient, and water for irrigation were provided by Axcella Health, Inc. 0.5% Methylcellulose was provided by CrownBio, Inc. Dosing solutions were prepared according to Appendix 1. […] Obeticholic acid (OCA) was suspended in 0.5% methylcellulose in water for irrigation. All test articles were stored refrigerated. TA compounds were provided in frozen powder form by the sponsor. Dosing was continued for 4 weeks.\nLeucine dosages of […]+G and LRQNAC were matched to that of […].\n[…], […]+G, LRQNAC, OCA and Vehicle were administered by oral gavage at a volume of 10 mL/kg throughout the study. Dosages were calculated by daily body weight. […], […]+G, LRQNAC, and Vehicle were administered twice per day (BID), while OCA was administered once a day (QD) in the morning. Mice receiving OCA once per day (QD), and one vehicle QD. Doses were administered by oral gavage at 0700 and 1800 by oral gavage for 4 weeks.\nThe viability, clinical signs and behavior were monitored daily. Body weight was recorded daily during the dosing period. Blood samples were collected weekly in the AM (0700) via tail clip for glucose measurement (StatStrip glucometer).\nAnimals were anesthetized with CO2 inhalation and exsanguinated via cardiac puncture for euthanasia. Terminal blood samples (K2EDTA) were obtained by cardiac puncture in anesthetized animals at termination. Samples were provided frozen to Axcella Health. Organ weights (total liver, gonadal fat pads) were recorded. Pancreas, and small intestine and gonadal fat pads were fixed in 10% Buffered Formalin and prepared as directed in protocol. A section of small intestine, gonadal fat pad and liver were also snap frozen in liquid nitrogen and shipped to the sponsor.\nThe liver tissues were fixed in Bouin's solution at 4° C. for 24 hours followed by baths of standard concentrations of alcohol then xylene to prepare the tissues for paraffin embedding. After being embedded in paraffin and cooled, five-micron sections were cut and stained for routine H&E and Picric Sirius Red. A section of both right and left lobes of the livers were frozen in OCT for analysis of lipid content with Oil-Red-) staining. The Aperio whole slide digital imaging system (Scan Scope CS, Vista, Calif.) was used for imaging. All slides were imaged at 20×. The scan time ranged from 1.5 minutes to a maximum time of 2.25 minutes. […]"}, "[2]": {"settings": "OCA oral gavage QD, 4 weeks, mean ± SEM"}},
  "data": [
    {"smiles": "CC[C@H](C)[C@H](N)C(=O)O", "note": "[ILE, isoleucine]", "values": [
      {"measurement": "Procollagen Ia1 Secretion (Fold Change of 1X), Mean", "setting": "[1]; first donor, 66 μM (baseline, reference)", "result": 1.0000, "unit": "fold"},
      {"measurement": "Procollagen Ia1 Secretion (Fold Change of 1X), Mean", "setting": "[1]; first donor, 1328 μM", "result": 0.9229, "unit": "fold"},
      {"measurement": "Procollagen Ia1 Secretion (Fold Change of 1X), Mean", "setting": "[1]; first donor, 3320 μM", "result": 1.1366, "unit": "fold"},
      {"measurement": "Procollagen Ia1 Secretion (Fold Change of 1X), Mean", "setting": "[1]; first donor, 6639 μM", "result": 1.2144, "unit": "fold"},
      {"measurement": "procollagen Iα1 secretion", "setting": "[1]", "result": "significantly increased procollagen Iα1 secretion in two of three donors"},
      {"measurement": "Procollagen Ia1 Secretion (Fold Change of 1X), Mean", "setting": "[1]; second donor, single amino acid, 66 μM (1X reference)", "result": 1.0000, "unit": "fold change"},
      {"measurement": "Procollagen Ia1 Secretion (Fold Change of 1X), Mean", "setting": "[1]; second donor, single amino acid, 1328 μM", "result": 1.4811, "unit": "fold change"},
      {"measurement": "Procollagen Ia1 Secretion (Fold Change of 1X), Mean", "setting": "[1]; second donor, single amino acid, 3320 μM", "result": 1.4940, "unit": "fold change"},
      {"measurement": "Procollagen Ia1 Secretion (Fold Change of 1X), Mean", "setting": "[1]; second donor, single amino acid, 6639 μM", "result": 1.5423, "unit": "fold change"},
      {"measurement": "Procollagen Ia1 Secretion (Fold Change of 1X), Mean", "setting": "[1]; third donor, single amino acid, 66 μM (1X reference)", "result": 1.0000, "unit": "fold change"},
      {"measurement": "Procollagen Ia1 Secretion (Fold Change of 1X), Mean", "setting": "[1]; third donor, single amino acid, 1328 μM", "result": 1.2687, "unit": "fold change"},
      {"measurement": "Procollagen Ia1 Secretion (Fold Change of 1X), Mean", "setting": "[1]; third donor, single amino acid, 3320 μM", "result": 1.2703, "unit": "fold change"},
      {"measurement": "Procollagen Ia1 Secretion (Fold Change of 1X), Mean", "setting": "[1]; third donor, single amino acid, 6639 μM", "result": 1.4465, "unit": "fold change"}
    ]},
    {"smiles": "CC(C)[C@H](N)C(=O)O", "note": "[VAL, valine]", "values": [
      {"measurement": "Procollagen Ia1 Secretion (Fold Change of 1X), Mean", "setting": "[1]; first donor, 234 μM (baseline, reference)", "result": 1.0000, "unit": "fold"},
      {"measurement": "Procollagen Ia1 Secretion (Fold Change of 1X), Mean", "setting": "[1]; first donor, 4684 μM", "result": 1.1203, "unit": "fold"},
      {"measurement": "Procollagen Ia1 Secretion (Fold Change of 1X), Mean", "setting": "[1]; first donor, 11710 μM", "result": 1.2069, "unit": "fold"},
      {"measurement": "Procollagen Ia1 Secretion (Fold Change of 1X), Mean", "setting": "[1]; first donor, 23420 μM", "result": 1.2139, "unit": "fold"},
      {"measurement": "procollagen Iα1 secretion", "setting": "[1]", "result": "significantly increased procollagen Iα1 secretion in only one of two donors"},
      {"measurement": "Procollagen Ia1 Secretion (Fold Change of 1X), Mean", "setting": "[1]; second donor, single amino acid, 234 μM (1X reference)", "result": 1.0000, "unit": "fold change"},
      {"measurement": "Procollagen Ia1 Secretion (Fold Change of 1X), Mean", "setting": "[1]; second donor, single amino acid, 4684 μM", "result": 1.2865, "unit": "fold change"},
      {"measurement": "Procollagen Ia1 Secretion (Fold Change of 1X), Mean", "setting": "[1]; second donor, single amino acid, 11710 μM", "result": 1.2877, "unit": "fold change"},
      {"measurement": "Procollagen Ia1 Secretion (Fold Change of 1X), Mean", "setting": "[1]; second donor, single amino acid, 23420 μM", "result": 1.3068, "unit": "fold change"},
      {"measurement": "Procollagen Ia1 Secretion (Fold Change of 1X), Mean", "setting": "[1]; third donor, single amino acid, 234 μM (1X reference)", "result": 1.0000, "unit": "fold change"},
      {"measurement": "Procollagen Ia1 Secretion (Fold Change of 1X), Mean", "setting": "[1]; third donor, single amino acid, 4684 μM", "result": 1.0428, "unit": "fold change"},
      {"measurement": "Procollagen Ia1 Secretion (Fold Change of 1X), Mean", "setting": "[1]; third donor, single amino acid, 11710 μM", "result": 1.0498, "unit": "fold change"},
      {"measurement": "Procollagen Ia1 Secretion (Fold Change of 1X), Mean", "setting": "[1]; third donor, single amino acid, 23420 μM", "result": 1.1139, "unit": "fold change"}
    ]},
    {"smiles": "CC[C@H]1[C@@H](O)[C@@H]2[C@H](CC[C@]3(C)[C@@H]([C@H](C)CCC(=O)O)CC[C@@H]23)[C@@]2(C)CC[C@@H](O)C[C@@H]12", "note": "[OCA, 6α-ethyl-chenodeoxycholic acid]", "values": [
      {"measurement": "Fibrosis (liver fibrosis score)", "setting": "FATZO mice (NASH); [2]", "result": "0.67 ± 0.167"},
      {"measurement": "Liver Pathology: Inflammation", "setting": "FATZO mice (NASH); [2]", "result": "1.0 ± 0.0"},
      {"measurement": "Liver Pathology: NAS", "setting": "FATZO mice (NASH); [2]", "result": "3.72 ± 0.147"},
      {"measurement": "Sirius Red (collagen staining)", "setting": "FATZO mice (NASH); [2]", "result": "1.59 ± 0.36"},
      {"measurement": "Liver Pathology: Ballooning", "setting": "FATZO mice (NASH); OCA oral gavage QD, 4 weeks, score 0-2, mean ± SEM", "result": "0.94 ± 0.056"},
      {"measurement": "Liver Pathology: Steatosis", "setting": "FATZO mice (NASH); OCA oral gavage QD, 4 weeks, score 0-3, mean ± SEM", "result": "1.78 ± 0.147"},
      {"measurement": "Body weight change compared to baseline", "setting": "FATZO mice (NASH); 4 weeks oral, LIVRQNAC 3000 mg/kg, LIVRQNAC+G 3885 mg/kg, LRQNAC 2469 mg/kg BID, OCA 30 mg/kg/day QD", "result": "−3.9±1.5", "unit": "%"},
      {"measurement": "Liver weight (% body weight)", "setting": "FATZO mice (NASH); 4 weeks, LIVRQNAC 3000 mg/kg, LIVRQNAC+G 3885 mg/kg, LRQNAC 2469 mg/kg, OCA 30 mg/kg/day", "result": "6.81±0.2", "unit": "% body weight"}
    ]}
  ]
}
